{"source": "paper PMC6595003", "about": "“Insights into real-time chemical processes in a calcium sensor protein-directed dynamic library” (Nature Communications, 2019)", "tested_on": "Cortical neurons from E14 wild-type mice", "assay": "Toxicity in primary cultured neurons (percentage of picnotic bodies)", "format": "cell-based", "conditions": "24 h", "description": "Mean ± SD from three independent experiments. The curves represent the least squares fitting of the experimental data to a 1:1 stoichiometry. To properly compare the different curves, intensities were normalized and represented. […] Input represents 1/10 cell lysates before IP. Quantifications of each lane from four experiments are shown below the blots. Bars represent percentage of NCS-1/ Ric8a binding (mean ± SD) normalized to DMSO. […] CNS + (green) for Pe > 4.47 × 10^−6 cm s^−1, CNS- (red) for compounds with Pe < 4.47 × 10^–6 cm s^−1. […] Mean ± SD from three independent experiments. […] Then, the percentage of picnotic bodies over the total nuclei was analyzed. Mean ± SD from three independent experiments. Paired two-tailed Student’s test ***P˂0.001; **P < 0.01; *P < 0.05. Source data are provided as a Source Data file. IP immunoprecipitation, WB western blot\nFinally, cell toxicity in neurons was quantified as percentage of picnotic bodies for 3b (Fig. 6d).\nCortical neurons were obtained from E14 wt mice (C57BL6J). Mice were maintained in accordance to European law and following Hospital Ramón y Cajal´s animal guidelines. […] Three independent experiments counting cells from three different wells per concentration were performed. To analyzed cell death, neurons were fixed and stained with DAPI.", "data": [{"smiles": "O=C(Cc1c[nH]c2ccccc12)NN=Cc1ccc([N+](=O)[O-])c(O)c1", "note": "(mixture of isomers) [3b]", "values": [{"measurement": "percentage of picnotic bodies, % exp 2", "setting": "0.2 μM", "value": 12, "unit": "%"}, {"measurement": "percentage of picnotic bodies, % exp 3", "setting": "0.2 μM", "value": 10, "unit": "%"}, {"measurement": "percentage of picnotic bodies, % exp.1", "setting": "0.2 μM", "value": 10.1, "unit": "%"}, {"measurement": "percentage of picnotic bodies over total nuclei, average", "setting": "0.2 μM, DMSO 8.4", "value": 10.7, "unit": "%"}, {"measurement": "percentage of picnotic bodies, % exp 2", "setting": "2 μM", "value": 10, "unit": "%"}, {"measurement": "percentage of picnotic bodies, % exp 3", "setting": "2 μM", "value": 10, "unit": "%"}, {"measurement": "percentage of picnotic bodies, % exp.1", "setting": "2 μM", "value": 13.4, "unit": "%"}, {"measurement": "percentage of picnotic bodies over total nuclei, average", "setting": "2 μM, DMSO 8.06667", "value": 11.1333, "unit": "%"}, {"measurement": "percentage of picnotic bodies, % exp 2", "setting": "10 μM", "value": 12.5, "unit": "%"}, {"measurement": "percentage of picnotic bodies, % exp 3", "setting": "10 μM", "value": 15, "unit": "%"}, {"measurement": "percentage of picnotic bodies, % exp.1", "setting": "10 μM", "value": 14.3, "unit": "%"}, {"measurement": "percentage of picnotic bodies over total nuclei, average", "setting": "10 μM, DMSO 12.1667", "value": 13.9333, "unit": "%"}, {"measurement": "percentage of picnotic bodies, % exp 2", "setting": "20 μM", "value": 17.5, "unit": "%"}, {"measurement": "percentage of picnotic bodies, % exp 3", "setting": "20 μM", "value": 22.6, "unit": "%"}, {"measurement": "percentage of picnotic bodies, % exp.1", "setting": "20 μM", "value": 15.3, "unit": "%"}, {"measurement": "percentage of picnotic bodies over total nuclei, average", "setting": "20 μM, DMSO 12", "value": 18.4667, "unit": "%"}, {"measurement": "cell toxicity in neurons compared with vehicle DMSO", "setting": "0.2, 2, 10, 20 μM", "value": "no significant differences"}]}]}
